In patent publication US8349215B2, “Corrosion inhibitors having increased biological degradability and minimized toxicity” (Clariant Finance (BVI) Limited, priority 2008, dated 2013):

Key:
[1] = test system: Skeletonema costatum; assay: Toxicity (EC50 Skeletonema costatum); assay type: cell-based
[2] = Biodegradability (OECD 306)

| Biodegradability [2] [%] | Structure (SMILES) | Toxicity EC50 [1] [µg/mL] |
| --- | --- | --- |
| 85 | CCCCCCCCN1CC(C(=O)O)CC1=O.NCCO (stereo not shown) [Compound from example 1, N-octyl-5-oxopyrrolidine-3-carboxylic acid monoethanolammonium salt] | >100 |
| 78 | CCCCCCCC/C=C\CCCCCCCCN1CC(C(=O)O)CC1=O.NCCO (stereo not shown) [Compound from example 5, N-oleyl-5-oxopyrrolidine-3-carboxylic acid monoethanolammonium salt] | >100 |
